# Patent US9926573B2, “Glyphosate-tolerant gene and use thereof” (priority 2012, dated 2018)
# Residue numbers refer to the chain shown, from its start.
# Experiments:
# [1] = test system: E. Coli BL21 (DE3) transformed with LS-EPSPS-PET; test: Growth (OD) of E. coli strain transformed with LS-EPSPS-PET in glyphosate-containing LB; type: cell-based; conditions: compared with strain with empty vector PET-28a
# Method: The LS-EPSPS gene was cloned into the vector PET-28a, and transferred to E. Coli BL21 (DE3), to obtain a transgenic strain. The reading frame of the transgenic strain was expressed under control of the T7 promoter in the PET system.
# The stain transformed with LS-EPSPS-PET or PET-28a (empty vector, control) was incubated in LB, and grown in an LB liquid medium containing Kan at 37° C. when OD600 reached […], until the OD value reached about 0.4. […] These indicate that the LS-EPSPS gene has glyphosate-resistant/tolerant activity.
# EPSPase [2] = test: Ex-vivo EPSPase activity assay, crude extract; type: biochemical, wide-type Arabidopsis thaliana
# Method: (§1) 0.5 g of the seedlings of Ophiopogon japonicus, Liriope spicata, Liriope platyphylla and wide-type Arabidopsis thaliana were weighed, added with 150 ml of an extraction buffer A [containing 100 mmol/L Tris pH 7.5, 1 mmol/L EDTA, 10% (V/V) glycerol, 1 mg/L BSA, 10 mmol/L Vitamin C (Vc), 1 mmol/L benzamidine, 5 mmol/L DTT, and 20 mg/ml PVPP], ground and homogenized, filtered through 6 layers of gauze, and centrifuged at 12000 rpm and 4° C. […] Following the method as described by Lanzetta and Alvarez (1979), the reaction was developed for 30 min by adding 800 μl of malachite green hydrochloride, and then 100 μl of a 34% sodium citrate solution was added. After 30 min, the OD660 value was determined at 660 nm on a spectrophotometer. […] Logistic regression analysis was performed and the ED50 was calculated.
# EPSPase [3] = target: T1, EPSPase (Liriope muscari (Liriope platyphylla), UniProt A0A0N9BED7); test: Ex-vivo EPSPase activity assay, crude extract; type: biochemical; conditions: 25° C., 15 min
# T1 sequence (A0A0N9BED7 66-518): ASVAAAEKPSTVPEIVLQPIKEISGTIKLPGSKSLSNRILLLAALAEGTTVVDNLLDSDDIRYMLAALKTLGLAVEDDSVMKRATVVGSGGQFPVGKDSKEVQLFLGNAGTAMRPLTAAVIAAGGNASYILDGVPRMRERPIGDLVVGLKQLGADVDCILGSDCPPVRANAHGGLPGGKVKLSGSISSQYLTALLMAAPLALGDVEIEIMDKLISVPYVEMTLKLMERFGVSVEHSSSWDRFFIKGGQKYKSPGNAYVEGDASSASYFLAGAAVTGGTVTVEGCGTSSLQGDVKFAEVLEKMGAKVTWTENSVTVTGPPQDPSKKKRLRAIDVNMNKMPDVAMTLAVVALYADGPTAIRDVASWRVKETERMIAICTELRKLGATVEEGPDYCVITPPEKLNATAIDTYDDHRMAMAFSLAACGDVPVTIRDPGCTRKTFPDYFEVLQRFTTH
# Method: as §1
# EPSPase [4] = target: T2, EPSPase (Liriope spicata, UniProt A0A0N9BED5); test: Ex-vivo EPSPase activity assay, crude extract; type: biochemical; conditions: 25° C., 15 min
# T2 sequence (A0A0N9BED5 66-518): T1 sequence (A0A0N9BED7 66-518) with A74T, S162T, I331V, T404N, G424A
# Method: as §1
# EPSPase [5] = target: T3, EPSPase (Ophiopogon japonicus, UniProt A0A0N7E509); test: Ex-vivo EPSPase activity assay, crude extract; type: biochemical; conditions: 25° C., 15 min
# T3 sequence (A0A0N7E509 64-516): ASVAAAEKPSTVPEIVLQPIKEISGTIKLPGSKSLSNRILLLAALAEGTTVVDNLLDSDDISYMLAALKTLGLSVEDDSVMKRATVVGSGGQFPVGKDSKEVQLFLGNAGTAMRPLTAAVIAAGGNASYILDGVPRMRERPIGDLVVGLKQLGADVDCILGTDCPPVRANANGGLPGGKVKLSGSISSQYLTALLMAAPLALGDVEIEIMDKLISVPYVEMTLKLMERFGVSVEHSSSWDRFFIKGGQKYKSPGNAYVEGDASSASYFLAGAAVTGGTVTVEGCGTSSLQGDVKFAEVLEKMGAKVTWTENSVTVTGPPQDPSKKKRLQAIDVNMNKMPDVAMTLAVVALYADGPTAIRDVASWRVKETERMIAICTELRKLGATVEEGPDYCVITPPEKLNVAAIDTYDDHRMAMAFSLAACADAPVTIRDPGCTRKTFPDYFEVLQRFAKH
# Method: as §1
# [6] = test system: callus of the control Arabidopsis thaliana; test: Callus growth on glyphosate-containing MS medium, control; type: cell-based; conditions: two weeks, 25° C.
# Method: (§2) The transgenic Arabidopsis thaliana plant was obtained by screening. The stem of the tissue cultured seedling of the non-transgenic and the LS-EPSPS transgenic Arabidopsis thaliana was used as an explant for callus induction in an MS medium containing 2.0 mg/L of 6-BA and 0.1 mg/L of NAA. […] The results were statistically calculated after two weeks.
# [7] = test system: callus of the transgenic Arabidopsis thaliana; test: Callus growth on glyphosate-containing MS medium, LS-EPSPS transgenic; type: cell-based; conditions: two weeks, 25° C.
# Method: as §2
compound,measurement,setting,value
"O=C(O)CNCP(=O)(O)O [glyphosate, N-(phosphonomethyl)glycine]",ED50 value of the strain (logistic regression),[1],greatly higher than that of the strain with the empty vector PET-28a
same,glyphosate concentration at which EPSPase activity declines obviously,"EPSPase [2]; 25° C., 15 min",500 µmol/L
same,EC50,"EPSPase [2]; logistic regression, read-out: ED50 for the EPSPase activity",560 µM
same,glyphosate concentration at which EPSPase activity declines obviously,EPSPase [3],1000 µmol/L
same,glyphosate concentration at which EPSPase activity declines obviously,EPSPase [4],1000 µmol/L
same,glyphosate concentration at which EPSPase activity declines obviously,EPSPase [5],800 µmol/L
same,glyphosate concentration at which callus becomes yellow and gradually mortifies,[6],50 mg·L
same,glyphosate concentration at which callus can still normally grow,[7],600 mg/L
same,glyphosate concentration at which callus is inhibited in growth and becomes brown and yellow,[7],800 mg/L
